Where two headings read alike, the source gives them in different places. Non-standard residues stand in square brackets, D forms with d. Residues, ends and D or L forms follow the SMILES beside them. *: point of attachment. Sta = CC(C)C[C@H](N)[C@@H](O)CC(=O)O; Isovaleryl = CC(C)CC(=O)*
Legend:
[1] = system: vWF depolymerizing activity of BAECcm; assay: Inhibitor profile of the vWF depolymerizing activity of BAEC conditioned medium; format: biochemical
purified vWF [2] = biological target: T1, purified vWF (Homo sapiens, UniProt P04275); assay: Effect of purified reductants or thiol reagents on the average multimer size of purified vWF (agarose gel electrophoresis); format: biochemical; parameters: Purified vWF from human plasma was obtained from the Baker Medical Research Institute; tissue Baker Medical Research Institute, Melbourne; host or cells: human plasma; conditions: for effect on average multimer size of purified vWF: GSH 20 μM, PDI 10 nM, thioredoxin 10 nM, 24 hours at 37° C.
purified vWF [3] = biological target: T1, purified vWF; assay: Effect of purified reductants on affinity of purified vWF for collagen; format: biochemical; conditions: 24 hours at 37° C.; for effect on vWF collagen affinity: PDI at 10 nM
Experimental: Confluent HUVEC's were washed with M199 without FCS and incubated in M199 for up to 8.5 hours. The HUVECS were stimulated to release vWF by adding […] human α-thrombin after 0.5 hours. The thrombin was quenched after 2 hours incubation by adding 5 mM D-Phe-Pro-Arg-chloromethyl ketone. Samples of the conditioned medium were collected at discrete time intervals and analyzed for vWF by 1% agarose gel electrophoresis and Western blotting or vWF antigen levels and collagen binding affinity (not shown). vWF antigen levels were determined using ELISA by capturing the vWF with adsorbed anti-vWF polyclonal antibodies and detecting using peroxidase conjugated anti-vWF polyclonal antibodies (Favoloro et al., 1991). Collagen binding affinity was assessed by incubating the vWF in plastic wells coated with type I/III collagen for 1 hour and measuring the bound vWF using peroxidase conjugated anti-vWF antibodies (Favoloro et al., 1991). Large vWF multimers bind to collagen with up to ˜100-fold higher affinity than smaller multimers, therefore affinity for collagen is a useful indicator of average vWF multimer size.
The effect of incubation of purified vWF with GSH, PDI, or GSH and PDI, for 24 hours at 37° C. on the affinity of vWF for collagen was analysed. […] The half-maximal effect of GSH on vWF collagen affinity was ˜20 μM. […] The half-maximal effect of GSH in the presence on PDI on vWF collagen affinity was similar to that of GSH alone, ˜20 μM.

plasma vWF = plasma vWF (Homo sapiens, UniProt P04275); conditions: GSH 20 μM added to BAECcm
Experimental: To test whether exogenous GSH could augment vWF depolymerization by BAECcm, plasma vWF was incubated with BAECcm, or BAECcm and GSH (20 μM), and multimer size measured by either agarose gel electrophoresis or collagen binding.

vWF = biological target: T2, vWF (Homo sapiens, UniProt P04275); assay: Reduction in average multimer size of vWF in TTP plasma (agarose gel, collagen binding/vWF antigen); format: biochemical; conditions: chelation of Ca2+
T2 construct: from tissue; host or cells: plasma of a TTP patient (vWF); human platelet concentrates (TSP-1)
Experimental: TTP plasma was incubated with 20 mM Hepes, 0.14M NaCl, 1 mM CaCl2, 1 mM MgCl2, pH 7.4 buffer, conditioned media of HMEC-1 cells or the Hepes buffer containing TSP-1 for 1 or 24 hours at 37° C. Aliquots of the reactions were diluted 10-fold in the Hepes buffer and assayed for collagen binding affinity and vWF antigen as described by Favaloro et al. (1991). On some occasions, aliquots of the reactions were resolved on 1% agarose gel electrophoresis (Ruggeri and Zimmerman, 1980), transferred to PVDF membrane (DuPont NEN, Boston, Mass.), blotted with 2 μg per ml of horse radish peroxidase conjugated anti-vWF polyclonal antibodies (DAKO Corporation, Carpinteria, Calif.) and visualized using chemiluminescence (DuPont NEN, Boston, Mass.).
TSP-1 is a major component of platelet α-granules which is secreted upon platelet activation and aggregation. TSP-1 was purified to homogeneity from pooled outdated human platelet concentrates (Murphy-Ullrich and Mosher. 1985; Hogg et al., 1997) and tested for vWF reductase activity. Buffers containing 0.1 mM CaCl2 were used throughout the chromatographic purification of TSP1. […] In particular, the very large multimers were lost (see bracket in FIG. 3A). […] TSP-1-mediated reduction in vWF multimer size was concentration- and time-dependent (FIG. 3B). Three different preparations of platelet TSP-1 had the same vWF reducing activity (not shown). It is noteworthy that the molar ratio of TSP-1 to vWF influenced the extent of reduction in vWF multimer size (FIG. 3B). The vWF reductase activity in endothelial cell conditioned medium is inhibited by EDTA. In accordance with this observation, chelation of Ca^2+ with EDTA ablated the vWF reductase activity of TSP-1 (not shown).

purified vWF [4] = biological target: T1, purified vWF; assay: MPB labelling assay for reduction of vWF disulfide bond(s) / formation of new thiols in vWF; format: biochemical; parameters: Purified vWF from human plasma was obtained from the Baker Medical Research Institute; tissue Baker Medical Research Institute, Melbourne (vWF); host or cells: human plasma (vWF); human platelet concentrates (TSP-1); conditions: chelation of Ca2+ in the reactions
Experimental: The biotin-linked maleimide, MPB, was used to measure reduction of vWF disulfide bond(s) in BAECcm. […] Free thiol(s) formed in vWF by reduction of disulfide bonds bond(s) were labelled with MPB (100 μM) and the unreacted MPB was quenched with GSH (200 μM). N-ethylmaleimide reacts rapidly with free thiols with a second order rate constant of ˜10^4 M^−1s^−1 at pH 8 (Torchinski and Dixon, 1974). Therefore, the half life for reaction of free thiols in vWF with the maleimide moiety of MPB was anticipated to be in the order of a few seconds. Aliquots of the reactions containing MPB-labelled vWF were incubated in ELISA plate wells coated with anti-vWF polyclonal antibodies. The adsorbed vWF was incubated with streptavidin peroxidase to measure the incorporated MPB. The control for vWF labelling was incubation and labelling of BAECcm alone, prior to addition of vWF. This reaction represented the contribution to the assay of MPB labelling of endogenous vWF and/or other vWF binding proteins in the BAECcm. […]
Reduction of disulfide bonds in vWF was anticipated to result in a net increase in free thiols in the vWF population. […] The MPB-labeled vWF was incubated in ELISA plate wells coated with anti-human vWF polyclonal antibodies and the biotin label was detected using StreptABComplex/HRP (DAKO Corporation, Carpinteria, Calif.).

[5] = measured by agarose gel electrophoresis or collagen binding, BAECcm treated with agent

Compound: CC(C)C[C@H](NC(=O)[C@@H](NC(=O)N[C@@H](Cc1ccccc1)C(=O)O)[C@@H]1CCN=C(N)N1)C(=O)N[C@H](C=O)Cc1ccccc1 [chymostatin]
- effect on vWF depolymerizing activity of BAECcm [1, 5]: not inhibited

Compound: NC(=O)CI [IAM, iodoacetamide]
- effect on vWF depolymerizing activity of BAECcm [1, 5]: inactivated
- effect on average multimer size of vWF (purified vWF [2]; incubation of vWF with IAM or NEM alone): did not have any discernible effect

Compound: PDI: purified reductant
- effect on vWF collagen affinity (purified vWF [3]): reduced vWF collagen affinity to the same extent as 20 μM GSH
- effect on average multimer size of purified vWF (purified vWF [2]): reduction of the average multimer size of vWF

Compound: CC(=O)N[C@@H](CC(C)C)C(=O)N[C@@H](CC(C)C)C(=O)N[C@H](C=O)CCCNC(=N)N [leupeptin]
- effect on vWF depolymerizing activity of BAECcm [1, 5]: not inhibited

Compound: N[C@@H](CCC(=O)N[C@@H](CS)C(=O)NCC(=O)O)C(=O)O [GSH, reduced glutathione]
- effect on vWF collagen affinity (purified vWF [3]): reduced the collagen affinity of vWF
- EC50 (purified vWF [3]; GSH alone, read-out: half-maximal effect on vWF collagen affinity): ~20 µM
- EC50 (purified vWF [3]; GSH in the presence of PDI, read-out: half-maximal effect on vWF collagen affinity in the presence of PDI): ~20 µM
- effect on average multimer size of purified vWF (purified vWF [2]): reduction of the average multimer size of vWF
- vWF depolymerization over that by BAECcm alone (plasma vWF; agarose gel electrophoresis): small increase
- collagen affinity of vWF (plasma vWF; p<0.05): significant reduction

Compound: NCCc1ccc(S(=O)(=O)F)cc1 [4-(2-aminoethyl)benzenesulfonylfluoride]
- effect on vWF depolymerizing activity of BAECcm [1, 5]: not inhibited

Compound: thioredoxin
- effect on average multimer size of purified vWF (purified vWF [2]): reduction of the average multimer size of vWF

Compound: CC(C)C[C@H](NP(=O)(O)O[C@@H]1O[C@@H](C)[C@H](O)[C@@H](O)[C@H]1O)C(=O)N[C@@H](Cc1c[nH]c2ccccc12)C(=O)O [phosphoramidon]
- effect on vWF depolymerizing activity of BAECcm [1, 5]: not inhibited

Compound: CC(C)C[C@H](NC(=O)[C@H]1O[C@@H]1C(=O)O)C(=O)NCCCCN=C(N)N [E-64]
- effect on vWF depolymerizing activity of BAECcm [1, 5]: inactivated

Compound: O=C(O)CN(CCN(CC(=O)O)CC(=O)O)CC(=O)O [EDTA]
- effect on vWF depolymerizing activity of BAECcm [1]: ablated activity
- effect on vWF reductase activity of TSP-1 (vWF): ablated
- effect on TSP-1-catalysed formation of free thiols in vWF (purified vWF [4]): ablated

Compound: CC(C)CC(=O)N[C@H](C(=O)N[C@H](C(=O)N[C@@H](CC(C)C)[C@@H](O)CC(=O)N[C@@H](C)C(=O)N[C@@H](CC(C)C)[C@@H](O)CC(=O)O)C(C)C)C(C)C [pepstatin] (Isovaleryl-VV[Sta]A[Sta]-OH)
- effect on vWF depolymerizing activity of BAECcm [1, 5]: not inhibited

Compound: aprotinin
- effect on vWF depolymerizing activity of BAECcm [1, 5]: not inhibited

From US20030040515A1, “Regulation of platelet adhesion and aggregation” (priority 2002, published 2003)
